The source of these data is ChEMBL document CHEMBL1128536, “Tyrosine kinase inhibitors. 5. Synthesis and structure-activity relationships for 4-[(phenylmethyl)amino]- and 4-(phenylamino)quinazolines as potent adenosine 5'-triphosphate binding site inhibitors of the tyrosine kinase domain of the epidermal growth factor receptor” (J Med Chem, 1995).

As usually defined, the IC50 is the concentration needed to halve the response being measured. A low value points to higher potency.

In test [1] the target is T1, Epidermal growth factor receptor (Homo sapiens, UniProt P00533). Briefly: Inhibition of Epidermal growth factor receptor from A431 cells.
Test [2] concerns the target T1, Epidermal growth factor receptor. Briefly: Evaluation of inhibitory activity against phospholipase C-gamma1 phosphorylation by Epidermal growth factor receptor enzyme isolated from A431 cells.

T1 sequence (P00533 whole entry): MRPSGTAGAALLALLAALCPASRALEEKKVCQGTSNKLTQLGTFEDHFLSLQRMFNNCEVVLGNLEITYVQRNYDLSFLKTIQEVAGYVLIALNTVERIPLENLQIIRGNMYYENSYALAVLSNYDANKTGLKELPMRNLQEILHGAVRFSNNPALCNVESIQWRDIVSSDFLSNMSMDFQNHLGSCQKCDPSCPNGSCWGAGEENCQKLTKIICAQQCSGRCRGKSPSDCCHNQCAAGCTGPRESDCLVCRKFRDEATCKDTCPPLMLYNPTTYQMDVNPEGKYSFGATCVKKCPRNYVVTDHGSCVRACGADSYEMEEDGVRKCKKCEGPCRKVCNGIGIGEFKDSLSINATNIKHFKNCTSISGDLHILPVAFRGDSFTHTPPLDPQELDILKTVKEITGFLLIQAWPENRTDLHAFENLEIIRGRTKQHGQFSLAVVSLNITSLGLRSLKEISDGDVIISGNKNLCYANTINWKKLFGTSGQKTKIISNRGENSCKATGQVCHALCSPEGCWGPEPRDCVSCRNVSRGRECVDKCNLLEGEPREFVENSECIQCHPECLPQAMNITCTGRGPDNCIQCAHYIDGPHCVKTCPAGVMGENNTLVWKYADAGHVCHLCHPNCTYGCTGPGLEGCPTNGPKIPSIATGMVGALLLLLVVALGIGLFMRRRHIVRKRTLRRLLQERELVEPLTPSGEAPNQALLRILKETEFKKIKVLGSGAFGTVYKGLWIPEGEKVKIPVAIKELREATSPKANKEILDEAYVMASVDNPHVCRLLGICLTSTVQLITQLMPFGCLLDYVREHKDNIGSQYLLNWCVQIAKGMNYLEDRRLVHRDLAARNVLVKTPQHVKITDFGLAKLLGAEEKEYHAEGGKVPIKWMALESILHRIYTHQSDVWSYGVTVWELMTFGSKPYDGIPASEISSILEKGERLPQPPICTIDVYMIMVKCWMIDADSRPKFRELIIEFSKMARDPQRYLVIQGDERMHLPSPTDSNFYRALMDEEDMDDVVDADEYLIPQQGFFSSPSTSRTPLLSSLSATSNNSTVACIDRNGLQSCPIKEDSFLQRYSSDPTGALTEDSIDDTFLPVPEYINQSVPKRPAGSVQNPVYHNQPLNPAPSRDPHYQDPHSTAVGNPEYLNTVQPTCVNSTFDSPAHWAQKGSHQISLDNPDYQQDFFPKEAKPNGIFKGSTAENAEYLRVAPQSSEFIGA

The compound `c1ccc(CNc2ncnc3ccccc23)cc1` displayed an IC50 in test [1] of 320 nM.
With `COc1cc2ncnc(NCc3ccccc3)c2cc1O`, in test [2], the midpoint of inhibition, the IC50, lay at 56 nM.
`O=[N+]([O-])c1cccc2ncnc(Nc3cccc(Br)c3)c12`: the IC50 in test [1] was found to be 355 nM.
In the case of `O=[N+]([O-])c1ccc2c(NCc3ccccc3)ncnc2c1`, the IC50 in test [2] was found to be 5900 nM.
`COc1ccc(CNc2ncnc3ccccc23)cc1` came in with an IC50 in test [2] of 10000 nM.
For the compound `Clc1ccc(CNc2ncnc3ccccc23)cc1`, in test [2], the IC50 is 7000 nM.
In the case of `O=[N+]([O-])c1cccc2c(NCc3ccccc3)ncnc12`, the IC50 in test [1] was > 10000 nM.
The compound `Brc1cccc(Oc2ncnc3ccccc23)c1` yielded an IC50 in test [2] of 756 nM.
Same read-out and setting: under `c1ccc(CCNc2ncnc3ccccc23)cc1` stands 4100 nM.
With `Nc1cccc2c(NCc3ccccc3)ncnc12`, the IC50 in test [1] is > 10000 nM.
With `Brc1cccc(Nc2cnnc3ccccc23)c1`, in test [2], the IC50 is > 10000 nM.
As for `O=[N+]([O-])c1ccc2ncnc(NCc3ccccc3)c2c1`, in test [2], the IC50 is > 10000 nM.
For `COc1cccc2ncnc(Nc3cccc(Br)c3)c12`, the IC50 in test [2] came to 139 nM.
The same measure, in the same setting: under `O=[N+]([O-])c1cccc2c(Nc3cccc(Br)c3)ncnc12` stands > 10000 nM.
Same read-out and setting: the result for `Nc1cccc2ncnc(NCc3ccccc3)c12` reads > 10000 nM; that for `O=[N+]([O-])c1cccc2ncnc(NCc3ccccc3)c12`, 8000 nM.
Turning to `Brc1cccc(Nc2nnnc3ccccc23)c1`, in test [2], the IC50 is > 1000 nM.
In test [1], `COc1cccc2c(Nc3cccc(Br)c3)ncnc12` gave a half-inhibitory concentration (IC50) of 974 nM.
In the case of `CN(c1ccccc1)c1ncnc2ccccc12`, the half-inhibitory concentration (IC50) in test [2] was 100000 nM.
On the same count and under the same terms, under `COc1cc2ncnc(NCc3ccccc3)c2cc1OC` stands 10 nM; under `Brc1cccc(Nc2nncc3ccccc23)c1`, > 100000 nM.
Still for that read-out and setting: the result for `COc1ccc2c(NCc3ccccc3)ncnc2c1` reads 58 nM; that for `Nc1cc2ncnc(Nc3cccc(Br)c3)c2cc1N`, 0.12 nM.
Consider `O=[N+]([O-])c1ccc2ncnc(Nc3cccc(Br)c3)c2c1`, for which inhibition in test [2] was half-maximal at 897 nM (IC50).
In test [2], `Clc1cccc(Nc2ncnc3ccccc23)c1` yielded an IC50 of 23 nM.
`COc1cccc2ncnc(NCc3ccccc3)c12`: the IC50 in test [2] is 4900 nM.
Same read-out and setting: under `Nc1ccc2c(NCc3ccccc3)ncnc2c1` stands > 1000 nM; under `Brc1cccc(Nc2cnc3ccccc3n2)c1`, > 100000 nM.
On to `Nc1ccc2ncnc(NCc3ccccc3)c2c1`, for which inhibition in test [2] was half-maximal at 1400 nM (IC50).
On the same count and under the same terms, the result for `COc1ccc2ncnc(NCc3ccccc3)c2c1` reads 200 nM; that for `Nc1cccc2c(Nc3cccc(Br)c3)ncnc12`, 105 nM; that for `Nc1cccc2ncnc(Nc3cccc(Br)c3)c12`, 439 nM.
Compound `COc1cc2c(NCc3ccccc3)ncnc2cc1O` yielded an IC50 in test [2] of 588 nM.
In the case of `Brc1cccc(Nc2ccnc3ccccc23)c1`, in test [2], the IC50 stood at 5500 nM.
With `Brc1cccc(Nc2nccc3ccccc23)c1`, the IC50 in test [2] is > 100000 nM.
With `COc1cccc2c(NCc3ccccc3)ncnc12`, in test [2], the IC50 is > 10000 nM.
Regarding `Cc1cccc(Nc2ncnc3ccccc23)c1`, in test [2], the IC50 is 910 nM.
On to `COc1ccc2ncnc(Nc3cccc(Br)c3)c2c1`, for which the midpoint of inhibition in test [2], the IC50, lay at 348 nM.
Consider `FC(F)(F)c1cccc(Nc2ncnc3ccccc23)c1`, for which half-maximal inhibition in test [2] (IC50) required 577 nM.
On the same count and under the same terms, the result for `Ic1cccc(Nc2ncnc3ccccc23)c1` reads 80 nM.
As to `Oc1cc2ncnc(Nc3cccc(Br)c3)c2cc1O`, the IC50 in test [1] worked out at 0.17 nM.
`COc1ccc2c(Nc3cccc(Br)c3)ncnc2c1`: in test [2], the IC50 came out at 10 nM.
`O=[N+]([O-])c1ccc2c(Nc3cccc(Br)c3)ncnc2c1` displayed an IC50 in test [2] of 1000 nM.
